Measurements published in ChEMBL document CHEMBL4118231, “Pyrroloquinoline scaffold-based 5-HT6R ligands: Synthesis, quantum chemical and molecular dynamic studies, and influence of nitrogen atom position in the scaffold on affinity” (Bioorg Med Chem, 2018).

molecular target: 5-hydroxytryptamine receptor 6 (Homo sapiens, UniProt P50406); test: Displacement of [3H]LSD from human 5-HT6R expressed in HEK293 cell membranes after 1 hr by microbeta counting method
Sequence (P50406 whole entry): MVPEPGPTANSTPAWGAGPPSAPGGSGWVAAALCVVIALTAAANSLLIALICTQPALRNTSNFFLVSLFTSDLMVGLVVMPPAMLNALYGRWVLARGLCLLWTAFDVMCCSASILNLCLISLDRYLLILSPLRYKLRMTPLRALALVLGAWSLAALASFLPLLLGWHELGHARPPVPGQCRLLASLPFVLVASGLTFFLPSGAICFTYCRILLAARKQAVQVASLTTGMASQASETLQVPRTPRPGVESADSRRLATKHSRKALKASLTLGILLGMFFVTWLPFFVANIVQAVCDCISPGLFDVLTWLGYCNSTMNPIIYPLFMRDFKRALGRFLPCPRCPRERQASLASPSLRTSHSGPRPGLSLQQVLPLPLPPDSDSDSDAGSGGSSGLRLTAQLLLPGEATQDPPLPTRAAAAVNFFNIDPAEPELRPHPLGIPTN

| SMILES | Ki [nM] |
| --- | --- |
| O=S(=O)(c1ccccc1)n1cc(C2=CCNCC2)c2ccc3cccnc3c21 | 131 |
| O=S(=O)(c1cccc(F)c1)n1cc(C2=CCNCC2)c2ccc3cccnc3c21 | 45 |
| O=S(=O)(c1cccc(Br)c1)n1cc(C2=CCNCC2)c2ccc3cccnc3c21 | 61 |
| O=S(=O)(c1ccccc1)n1cc(C2=CCNCC2)c2ccc3ncccc3c21 | 711 |
| O=S(=O)(c1cccc(Cl)c1)n1cc(C2=CCNCC2)c2ccc3ncccc3c21 | 427 |
| O=S(=O)(c1cccc(Br)c1)n1cc(C2=CCNCC2)c2ccc3ncccc3c21 | 137 |
| Clc1cccc(Cn2cc(C3=CCNCC3)c3ccc4cccnc4c32)c1 | 269 |
| O=S(=O)(c1cccc(F)c1)n1cc(C2=CCNCC2)c2ccc3ncccc3c21 | 365 |
| O=S(=O)(c1cccc(Cl)c1)n1cc(C2=CCNCC2)c2ccc3cccnc3c21 | 49 |
